Results published in paper PMC2001878, “Pharmacokinetic studies with zinc(II)-phthalocyanine in tumour-bearing mice” (British Journal of Cancer, 1987).
Entries after “also recorded” stand apart in the source; their conditions may differ. Each block holds one compound with its values, some of them ahead of it.

How the values were obtained:
[1] = Elimination pathway: analysis of faeces and urine of rats in metabolic cages; format: in vivo, Wistar albino rats; details: rapid clearance phase
[2] = Serum concentration time course after i.p. injection of liposomal Zn-Pc in tumour-bearing mice; format: in vivo, BALB/c mice; details: 0.5 mg kg-1 i.p. in DPPC liposomes, mice bearing MS-2 fibrosarcoma
Text: Br. J. Cancer (1987), 56, 597~~~~~~ ~~-60?TeMcilnPssLd,18 Pharmacokinetic studies with zinc(II)-phthalocyanine in tumour-bearing mice E. Reddi, G. Lo Castro, R. Biolo & G. Jori Department of Biology via Loredan 10, University of Padova, 1-35131 Padova, Italy. Summary Zn(II)-phthalocyanine (Zn-Pc) incorporated into unilamellar liposomes of dipalmitoyl- phosphatidylcholine has been injected intraperitoneally (0.5mgkg-1) to BALB/c mice bearing a transplanted MS-2 fibrosarcoma. […] Several normal tissues take up the drug within 3 hours after administration but release it almost completely after 24-48 hours. […] The results are discussed in terms of a possible use of Zn-Pc as a photosensitizer in the photodynamic therapy of tumours. Haematoporphyrin and haematoporphyrin derivative (HpD) are presently used as sensitizers for the specific destruction of tumours by photodynamic therapy (PDT) (Moan, 1986; Spikes & Jori, 1987). Although the technique is being applied for the treatment of a variety of neoplasias at both the experimental and clinical level (Dougherty, 1984), PDT is facing some problems and/or limitations. Thus, HpD as it is prepared from Hp (Lipson et al., 1961) is a complex mixture of porphyrins, whose composition is often not reproduced in different preparations and may change as a function of various experimental parameters (Bonnett et al., 1981; Dougherty, 1983). […] Moreover, PDT is usually performed by irradiation with 620-630 nm light; unfortunately, the molar absorptivity of Hp or HpD in this wavelength range is very low (< 103 M- 1 cm- 1). […] Pharmacokinetic studies The Zn-Pc was injected- i.p. into tumour-bearing mice after incorporation of the dye into small unilamellar liposomes of DPPC following the procedure described by Valduga et al. (1987): The Zn-Pc/DPPC ratio was 1:36 on a molar basis, as assessed from the weighed amount of phospholipid and absorbance measurements at 680 nm for Zn-Pc (E= 1.68 x 105 M-1 cm- at 673 nm). […]

[3] = Recovery of Zn-Pc from tumour and normal tissues of tumour-bearing mice; format: in vivo, BALB/c mice
Text: Br. J. Cancer (1987), 56, 597~~~~~~ ~~-60?TeMcilnPssLd,18 Pharmacokinetic studies with zinc(II)-phthalocyanine in tumour-bearing mice E. Reddi, G. Lo Castro, R. Biolo & G. Jori Department of Biology via Loredan 10, University of Padova, 1-35131 Padova, Italy. Summary Zn(II)-phthalocyanine (Zn-Pc) incorporated into unilamellar liposomes of dipalmitoyl- phosphatidylcholine has been injected intraperitoneally (0.5mgkg-1) to BALB/c mice bearing a transplanted MS-2 fibrosarcoma. […] Several normal tissues take up the drug within 3 hours after administration but release it almost completely after 24-48 hours. […] The results are discussed in terms of a possible use of Zn-Pc as a photosensitizer in the photodynamic therapy of tumours. Haematoporphyrin and haematoporphyrin derivative (HpD) are presently used as sensitizers for the specific destruction of tumours by photodynamic therapy (PDT) (Moan, 1986; Spikes & Jori, 1987). Although the technique is being applied for the treatment of a variety of neoplasias at both the experimental and clinical level (Dougherty, 1984), PDT is facing some problems and/or limitations. Thus, HpD as it is prepared from Hp (Lipson et al., 1961) is a complex mixture of porphyrins, whose composition is often not reproduced in different preparations and may change as a function of various experimental parameters (Bonnett et al., 1981; Dougherty, 1983). […] Moreover, PDT is usually performed by irradiation with 620-630 nm light; unfortunately, the molar absorptivity of Hp or HpD in this wavelength range is very low (< 103 M- 1 cm- 1). […] The ability of phthalocyanines and some of their metal derivatives to act as efficient photosensitizers of simple biological substrates (Spikes & Bommer, 1986) and cultured cells (Ben-Hur & Rosenthal, 1985; Chan et al., 1986) has been documented. Finally, Rousseau et al. (1985) have reported that tetra- sulphophthalocyanines (TSPc) can accumulate in a mammary adenocarcinoma in rats. While tetrasulphophthalocyanines are suitable for in vivo studies because of their high water-solubility, serious problems may arise owing to the low degree of purity. Actually, the presently adopted procedures for sulfonation of phthalocyanines lead to mixtures of mono-, di-, tri- and tetra-sulphonated compounds (Linstead & Weiss, 1950; Moser & Thomas, 1983). In general, underivatized phthalocyanines can be obtained with a very high purity and display a good efficiency in the generation of activated oxygen species (Maillard et al., 1980; Wu et al., 1985). […] In this paper, we describe the pharmacokinetic behaviour of liposome-bound Zn- phthalocyanine injected into. BALB/c mice bearing a transplanted fibrosarcoma. Materials and methods Chemicals Zn2 +-phthalocyanine (Zn-Pc) was supplied by Ciba-Geigy (Switzerland) and used without further purification. […] Dipalmitoyl- phosphatidylcholine (DPPC), over 98% pure, was a product of Sigma Chemical Co.; sodium dodecylsulphate (SDS) and Sephacryl S-300 were purchased from Merck and Pharmacia, respectively. […] Pharmacokinetic studies The Zn-Pc was injected- i.p. into tumour-bearing mice after incorporation of the dye into small unilamellar liposomes of DPPC following the procedure described by Valduga et al. (1987): The Zn-Pc/DPPC ratio was 1:36 on a molar basis, as assessed from the weighed amount of phospholipid and absorbance measurements at 680 nm for Zn-Pc (E= 1.68 x 105 M-1 cm- at 673 nm). […]

[4] = system: serum lipoproteins; experiment: Sephacryl S-300 chromatography of mouse serum after Zn-Pc administration; format: in vivo, BALB/c mice; details: sera taken between 1 h and 1 week after i.p. administration; second protein peak on Sephacryl S-300
Text: Br. J. Cancer (1987), 56, 597~~~~~~ ~~-60?TeMcilnPssLd,18 Pharmacokinetic studies with zinc(II)-phthalocyanine in tumour-bearing mice E. Reddi, G. Lo Castro, R. Biolo & G. Jori Department of Biology via Loredan 10, University of Padova, 1-35131 Padova, Italy. Summary Zn(II)-phthalocyanine (Zn-Pc) incorporated into unilamellar liposomes of dipalmitoyl- phosphatidylcholine has been injected intraperitoneally (0.5mgkg-1) to BALB/c mice bearing a transplanted MS-2 fibrosarcoma. […] Several normal tissues take up the drug within 3 hours after administration but release it almost completely after 24-48 hours. […] The results are discussed in terms of a possible use of Zn-Pc as a photosensitizer in the photodynamic therapy of tumours. Haematoporphyrin and haematoporphyrin derivative (HpD) are presently used as sensitizers for the specific destruction of tumours by photodynamic therapy (PDT) (Moan, 1986; Spikes & Jori, 1987). […] Pharmacokinetic studies The Zn-Pc was injected- i.p. into tumour-bearing mice after incorporation of the dye into small unilamellar liposomes of DPPC following the procedure described by Valduga et al. (1987): The Zn-Pc/DPPC ratio was 1:36 on a molar basis, as assessed from the weighed amount of phospholipid and absorbance measurements at 680 nm for Zn-Pc (E= 1.68 x 105 M-1 cm- at 673 nm). […]

[5] = system: HDL; experiment: In vitro incubation of human serum with Zn-Pc incorporated into DPPC liposomes; format: in vitro ADME; details: Reddi et al., unpublished results
[6] = set-up: method as in Tomio et al. (1982); details: Wistar rats; ref Tomio et al. (1982); cited from earlier work
[7] = set-up: method as in Tralau et al., 1987; details: i.v., ref Tralau et al., 1987, cited from earlier work

serum half-life (fast phase) [2]: approximately 9 hours
time of maximum serum concentration after administration [2]: 3 h
fraction of Zn-Pc eliminated from serum in the fast phase ([2]; biphasic clearance): approximately 60%
time of almost complete release from normal tissues ([3]; 0.5 mg kg-1 i.p.): 24 to 48 h
time of maximum tumour concentration ([3]; MS-2 fibrosarcoma, 0.5 mg kg-1 i.p. in DPPC liposomes): 18 to 24 h
ratio between Zn-Pc levels in tumour and muscle ([3]; at 18-24 h (24 h) after 0.5 mg kg-1 i.p., muscle = surrounding normal tissue): approximately 7.5
time of uptake by several normal tissues after administration ([3]; liver, kidneys, spleen, lungs, muscle, 0.5 mg kg-1 i.p.): ≤ 3 h
skin concentration of Zn-Pc ([3]; mouse skin, between 1 h and 168 h after administration, 0.5 mg kg-1 i.p.): ≤ 0.1 pug g- I tissue
fraction of drug bound by HDL [5]: at least 70%
Compound: [Zn+2].c1ccc2c(c1)-c1nc-2nc2[n-]c(nc3nc([n-]c4nc(n1)-c1ccccc1-4)-c1ccccc1-3)c1ccccc21 [Zn-Pc, Zn(II)-phthalocyanine]
elimination pathway from serum [1]: almost exclusively via the bile-gut pathway
serum protein class transporting the drug [4]: specifically transported by serum lipoproteins; also recorded: specifically associated with the second protein peak

Compound: CC1=C(CCC(=O)O)c2cc3[nH]c(cc4nc(cc5[nH]c(cc1n2)c(C)c5C(C)O)C(C)=C4C(C)O)c(C)c3CCC(=O)O (centres unmarked) [haematoporphyrin]
fraction of totally eliminated drug recovered in the faeces [6]: at least 98%

Compound: tetrasulphophthalocyanines [TSPc]
time of accumulation in tumour ([7]; fibrosarcoma implanted s.c. in the flank): 1 to 3 h
time to complete disappearance from serum [7]: ≤ 3 h
